Source: US8461305B2, “L-fucose α1→6 specific lectin” (J-Oil Mills, Inc., priority 2008, dated 2013)

B1: Lens culinaris agglutinin (protein)
chain 1: TETTSFSITKFSPDQKNLIFQGDGYTTKGKLTLTKAVKSTVGRALYSTPIHIWDRDTGNVANFVTSFTFVIDAPSSYNVADEFTFFIAPVDTKPQTGGGYLGVFNSKEYDKTSQTVAVEFDTFYNAAWDPSNKERHIGIDVNSIKSVNTKSWNLQNGERANVVIAFNAATNVLTVTLTYP
chain 2: VTSYTLNEVVPLKDVVPEWVRIGFSATTGAEFAAHEVHSWSFHSELGGTSSS
B2: Pisum sativum agglutinin (protein)
chain: TETTSFLITKFSPDQQNLIFQGDGYTTKEKLTLTKAVKNTVGRALYSSPIHIWDRETGNVANFVTSFTFVINAPNSYNVADGFTFFIAPVDTKPQTGGGYLGVFNSAEYDKTTQTVAVEFDTFYNAAWDPSNRDRHIGIDVNSIKSVNTKSWKLQNGEEANVVIAFNAATNVLTVSLTYPNSLEEENVTSYTLSDVVSLKDVVPEWVRIGFSATTGAEYAAHEVLSWSFHSELSGTSSSKQAADA
B3: Aleuria aurantia lectin (protein)
chain: PTEFLYTSKIAAISWAATGGRQQRVYFQDLNGKIREAQRGGDNPWTGGSSQNVIGEAKLFSPLAAVTWKSAQGIQIRVYCVNKDNILSEFVYDGSKWITGQLGSVGVKVGSNSKLAALQWGGSESAPPNIRVYYQKSNGSGSSIHEYVWSGKWTAGASFGSTVPGTGIGATAIGPGRLRIYYQATDNKIREHCWDSNSWYVGGFSASASAGVSIAAISWGSTPNIRVYWQKGREELYEAAYGGSWNTPGQIKDASRPTPSLPDTFIAANSSGNIDISVFFQASGVSLQQWQWISGKGWSIGAVVPTGTPAGW

Experiment: hemagglutinating inhibition test with sugars (sugar binding specificity)
Format: cell-based
Text: The sugar binding specificity of lectin also can be confirmed by using erythrocytes that can be specifically agglutinated by the lectin to investigate the sugar type that may inhibit the agglutination of the erythrocytes and the concentration thereof.
Various monosaccharides, oligosaccharides, and polysaccharides shown in Table 2 and glycoproteins shown in Table 3 were subjected to hemagglutinating inhibition test to evaluate PTL of Example 1 and the SRL of Example 2 with regard to the sugar binding specificity.
On a 96 well U-bottom microtiter plate, double dilution series of 10 μl of monosaccharide, oligosaccharide, polysaccharide, and glycoprotein solutions were prepared. Then, lectin solution adjusted in advance to have titer 4 was added in an amount of 10 μl to the respective wells. Then, the plate was subjected to a still-standing at a room temperature for one hour for sensitization. Then, 10 μl of 4%-red blood cell suspension was added to the respective wells and the plate was further subjected to a still-standing at a room temperature for one hour. […] The lowest concentration showing the inhibition was assumed as the minimum inhibition concentration. The lower the minimum inhibition concentration is, the higher the specificity to lectin is.
For comparison, the sugar binding specificity was evaluated using the following commercially-available lectins: Comparison Example 1: AAL (SEIKAGAKU BIOBUSINESS CORPORATION—J-OIL MILLS, Inc.), Comparison Example 2: AOL (TOKYO CHEMICAL INDUSTRY CO., LTD.—Gekkeikan Sake Company, Ltd.), Comparison Example 3: LCA (SEIKAGAKU BIOBUSINESS CORPORATION—J-OIL MILLS, Inc.), and Comparison Example 4: PSA (SEIKAGAKU BIOBUSINESS CORPORATION—J-OIL MILLS, Inc.).

[1] = inhibitor: N-Acetylneuraminic acid
[2] = inhibitor: N-acetylgalactosamine
[3] = inhibitor: N-glycolylneuraminic acid

| Molecule | minimum inhibition concentration of hemagglutination (inhibitor: Fructose) [mM] | minimum inhibition concentration of hemagglutination (inhibitor: Galactose) [mM] | minimum inhibition concentration of hemagglutination (inhibitor: Glucose) [mM] | minimum inhibition concentration of hemagglutination (inhibitor: L-fucose) [mM] | minimum inhibition concentration of hemagglutination (inhibitor: Lactose) [mM] | minimum inhibition concentration of hemagglutination (inhibitor: Maltose) [mM] | minimum inhibition concentration of hemagglutination (inhibitor: Mannose) [mM] | minimum inhibition concentration of hemagglutination (inhibitor: Melibiose) [mM] | minimum inhibition concentration of hemagglutination (inhibitor: Metyl α-mannoside) [mM] | minimum inhibition concentration of hemagglutination [1] [mM] | minimum inhibition concentration of hemagglutination [2] [mM] | minimum inhibition concentration of hemagglutination (inhibitor: N-acetylglucosamine) [mM] | minimum inhibition concentration of hemagglutination [3] [mM] | minimum inhibition concentration of hemagglutination (inhibitor: Raffinose) [mM] | minimum inhibition concentration of hemagglutination (inhibitor: Rhamnose) [mM] | minimum inhibition concentration of hemagglutination (inhibitor: Serial lactose) [mM] | minimum inhibition concentration of hemagglutination (inhibitor: Sucrose) [mM] | minimum inhibition concentration of hemagglutination (inhibitor: Xylose) [mM] |
| --- | --- | --- | --- | --- | --- | --- | --- | --- | --- | --- | --- | --- | --- | --- | --- | --- | --- | --- |
| Aspergillus oryzae lectin [AOL, reference compound] | 25 | >100 | >100 | 0.391 | >6 | >100 | 100 | >100 | >100 | >100 | >100 | >100 | >100 | >100 | 100 | >6 | >100 | >100 |
| Stropharia rugosoannulata lectin [SRL, novel L-fucose α1→6 specific lectin purified from the mushroom Stropharia rugosoannulata] | >100 | >100 | >100 | >100 | >6 | >100 | >100 | >100 | >100 | >100 | >100 | >100 | >100 | >100 | >100 | >6 | >100 | >100 |
| Pholiota terrestris lectin [PTL, novel L-fucose α1→6 specific lectin purified from the mushroom Pholiota terrestris] | >100 | >100 | >100 | >100 | >6 | >100 | >100 | >100 | >100 | >100 | >100 | >100 | >100 | >100 | >100 | >6 | >100 | >100 |
| B1 | >100 | >100 | >100 | >100 | >6 | 100 | 50 | >100 | 50 | >100 | >100 | >100 | >100 | >100 | >100 | >6 | >100 | >100 |
| B2 | >100 | >100 | >100 | >100 | >6 | >100 | 50 | >100 | 50 | >100 | >100 | >100 | >100 | >100 | >100 | >6 | >100 | >100 |
| B3 | 25 | >100 | >100 | 0.391 | >6 | >100 | 50 | >100 | >100 | >100 | >100 | >100 | >100 | >100 | >100 | >6 | >100 | >100 |
